Active and inactive are the calls of the source. The calls are words filed in the database; no cut-off is given here.
What was measured:
PC-3 = assay: Cytotoxicity against human PC3 cells after 48 hrs by MTS assay; assay type: functional; details: PC-3, 48 h
JIMT-1 = assay: Cytotoxicity against human JIMT1 cells after 48 hrs by MTS assay; assay type: functional; details: JIMT-1, 48 h
BT-474 [1] = assay: Cytotoxicity against human BT474 cells after 48 hrs by MTS assay; assay type: functional; details: BT-474, 48 h
MIA PaCa-2 [2] = assay: Cytotoxicity against human MIAPaCa2 cells after 48 hrs by MTS assay; assay type: functional; details: MIA PaCa-2, 48 h
DU-145 [3] = assay: Cytotoxicity against human DU145 cells after 48 hrs by MTS assay; assay type: functional; details: DU-145, 48 h
MDA-MB-231 [4] = assay: Cytotoxicity against human MDA-MB-231 cells after 48 hrs by MTS assay; assay type: functional; details: MDA-MB-231, 48 h
BT-474 [5] = assay: Cytotoxicity against human BT474 cancer stem cell spheroids assessed as reduction in cell viability up to 20 uM after 3 to 5 days by MTS assay; assay type: functional, cell-based
DU-145 [6] = assay: Disruption of preformed spheroids in human DU145 cancer stem cells at 20 uM after 3 days by microscopic analysis; assay type: functional, cell-based
BT-474 [7] = assay: Disruption of preformed spheroids in human BT474 cancer stem cells at 20 uM after 3 days by microscopic analysis; assay type: functional, cell-based
DU-145 [8] = assay: Cytotoxicity against human DU145 cancer stem cell spheroids assessed as reduction in cell viability up to 20 uM after 3 to 5 days by MTS assay; assay type: functional, cell-based
DU-145 [9] = assay: Disruption of preformed spheroids in human DU145 cancer stem cells at 5 to 10 uM after 4 days by microscopic analysis; assay type: functional
DU-145 [10] = assay: Cytotoxicity against human DU145 cancer stem cell spheroids assessed as reduction in cell viability at 5 to 10 uM after 5 to 6 days by MTS assay; assay type: functional
BT-474 [11] = assay: Cytotoxicity against human BT474 cancer stem cell spheroids assessed as reduction in cell viability at 5 to 10 uM after 5 to 6 days by MTS assay; assay type: functional
BT-474 [12] = assay: Disruption of preformed spheroids in human BT474 cancer stem cells at 5 to 10 uM after 4 days by microscopic analysis; assay type: functional
DU-145 [13] = assay: Disruption of preformed spheroids in human DU145 cancer stem cells at 7.5 uM after 3 days by microscopic analysis; assay type: functional, cell-based
BT-474 [14] = assay: Disruption of preformed spheroids in human BT474 cancer stem cells at 7.5 uM after 3 days by microscopic analysis; assay type: functional, cell-based
MDA-MB-231 [15] = assay: Potency index, ratio of salinomycin CC50 to test compound CC50 for human MDA-MB-231 cells; assay type: functional
DU-145 [16] = assay: Cytotoxicity against human DU145 cancer stem cell spheroids assessed as reduction in cell viability at 5 uM after 5 to 6 days by MTS assay; assay type: functional
BT-474 [17] = assay: Potency index, ratio of salinomycin CC50 to test compound CC50 for human BT474 cells; assay type: functional
MIA PaCa-2 [18] = assay: Potency index, ratio of salinomycin CC50 to test compound CC50 for human MIAPaCa2 cells; assay type: functional
DU-145 [19] = assay: Potency index, ratio of salinomycin CC50 to test compound CC50 for human DU145 cells; assay type: functional
BT-474 [20] = assay: Cytotoxicity against human BT474 cancer stem cell spheroids assessed as reduction in cell viability at 5 uM after 5 to 6 days by MTS assay; assay type: functional

Row | Compound | CC50 (PC-3) [µM] | CC90 (PC-3) [µM] | CC50 (JIMT-1) [µM] | CC90 (JIMT-1) [µM] | CC50 (BT-474 [1]) [µM] | CC90 (BT-474 [1]) [µM] | CC50 (MIA PaCa-2 [2]) [µM] | CC90 (MIA PaCa-2 [2]) [µM] | CC50 (DU-145 [3]) [µM] | CC90 (DU-145 [3]) [µM] | CC50 (MDA-MB-231 [4]) [µM] | CC90 (MDA-MB-231 [4]) [µM] | other results
1 | CCCCCCCCCCCCCCCCOC[C@H](CN=[N+]=[N-])O[C@@H]1O[C@H](CO)[C@@H](O)[C@H](O)[C@H]1N | 6 | 15 | 9.5 | 13.5 | 22 | 28 | 11.5 | 18.5 | 12.5 | 18 | 11 | 15 | –
2 | O=C(O)CCCc1ccc(N(CCCl)CCCl)cc1 [CHLORAMBUCIL] | – | – | – | – | – | – | – | – | – | – | > 150 | – | –
3 | CCCCCCCCCCCCCCN | – | – | – | – | – | – | – | – | – | – | – | – | Activity (BT-474 [5]): inactive; Activity (DU-145 [6]): inactive; Activity (BT-474 [7]): inactive; Activity (DU-145 [8]): inactive
4 | CCCCCCCCCCCCCCCCOC[C@H](CN)O[C@@H]1O[C@H](CO)[C@@H](O)[C@H](O)[C@H]1N | 9.5 | 17 | 14 | 19 | 25 | > 30 | 15 | 28 | 17.5 | 25 | 12 | 17.5 | –
5 | CCCCCCCCCCCCCCCCOC[C@@H](N)CO[C@@H]1O[C@H](CO)[C@@H](O)[C@H](O)[C@H]1N | 9 | 14 | 5.5 | 7.5 | 15.5 | 28 | 8.5 | 14 | 6 | 9 | 6 | 9 | Activity (DU-145 [9]): 100%; Activity (DU-145 [10]): 100%; Activity (BT-474 [11]): 100%; Activity (BT-474 [12]): 100%
6 | CC[C@@H](C(=O)[C@@H](C)[C@@H](O)[C@H](C)[C@@H]1O[C@@H]([C@@H](CC)C(=O)O)CC[C@@H]1C)[C@H]1O[C@]2(C=C[C@@H](O)[C@]3(CC[C@@](C)([C@H]4CC[C@](O)(CC)[C@H](C)O4)O3)O2)[C@H](C)C[C@@H]1C [SALINOMYCIN] | – | – | – | – | 14 | – | 6.5 | – | > 20 | – | > 20 | – | Activity (DU-145 [13]): Active; Activity (BT-474 [14]): Active
7 | CCCCCCCCCCCCCCCCOC[C@@H](CO[C@@H]1O[C@H](CN)[C@@H](O)[C@H](O)[C@H]1N1C(=O)c2ccccc2C1=O)OC | 15 | – | – | – | – | – | – | – | > 30 | – | 20 | – | –
8 | CCCCCCCCCCCCCCCCOC[C@@H](CO[C@@H]1O[C@H](CO)[C@@H](O)[C@H](O)[C@H]1N)OC | 13.5 | 28 | 9 | 16 | 8 | 13 | 9 | 18 | 10 | 15 | – | – | –
9 | CCCCCCCCCCCCCCCCOC[C@H](CO[C@@H]1O[C@H](CO)[C@@H](O)[C@H](O)[C@H]1N)NC(=O)OC | 20 | 29 | 12.5 | 15 | 23 | 29 | 18 | 29 | 14 | 19 | 16 | 19 | –
10 | CCCCCCCCCCCCCCCCOC[C@@H](CO[C@@H]1O[C@H](CN)[C@@H](O)[C@H](O)[C@H]1N)OC | 11 | 14 | 4.2 | 6.5 | 11.5 | 14 | 7 | 12 | 6 | 8.5 | 5.5 | 7 | Activity (DU-145 [9]): 100%; Activity (DU-145 [10]): 100%; Activity (BT-474 [11]): 100%; Activity (BT-474 [12]): 100%
11 | CCCCCCCCCCCCCCCCOC[C@H](CO[C@@H]1O[C@H](CN)[C@@H](O)[C@H](O)[C@H]1N)O[C@@H]1O[C@H](CN)[C@@H](O)[C@H](O)[C@H]1N | – | – | – | – | – | – | – | – | – | – | > 30 | – | –
12 | CCCCCCCCCCCCCCCCOC[C@@H](CO[C@H]1O[C@H](CN)[C@@H](O)[C@H](O)[C@H]1N)OC | 3.5 | 6 | 3.5 | 4.9 | 7.5 | 9.5 | 3.5 | 6.5 | 5.2 | 7.4 | 3 | 4.5 | Ratio (MDA-MB-231 [15]): >6; Activity (DU-145 [9]): 100%; Activity (DU-145 [16]): >95%; Ratio (BT-474 [17]): 2; Ratio (MIA PaCa-2 [18]): 2; Activity (DU-145 [10]): 100%; Activity (BT-474 [11]): 100%; Ratio (DU-145 [19]): >4; Activity (BT-474 [12]): 100%; Activity (BT-474 [20]): >95%
13 | CCCCCCCCCCCCCCCCOC[C@H](CO[C@@H]1O[C@H](CO)[C@@H](O)[C@H](O)[C@H]1N)NC(=O)CCCCCCCCCCCCCCC | – | – | – | – | – | – | – | – | – | – | > 30 | – | –
14 | CCCCCCCCCCCCCCCCOCCCO[C@@H]1O[C@H](CN)[C@@H](O)[C@H](O)[C@H]1N | 8 | 14 | 4 | 6 | 8.5 | 17.5 | 6.5 | 13 | 6 | 8.5 | 4.5 | 7 | Activity (DU-145 [9]): 100%; Activity (DU-145 [16]): >95%; Activity (DU-145 [10]): 100%; Activity (BT-474 [11]): 100%; Activity (BT-474 [12]): 100%; Activity (BT-474 [20]): >95%
